Results taken from ChEMBL document CHEMBL4251627, “Structural and biological characterization of new hybrid drugs joining an HDAC inhibitor to different NO-donors” (Eur J Med Chem, 2018).
Activity calls are given as the source filed them. No cut-off for these calls is given here.

What was measured:
[1] = (§1) Activation of soluble guanylyl cyclase in Wistar rat aortic strips assessed as dilation of L-phenylephrine-induced contraction administered 5 mins before contraction by isometric transducer analysis
Rattus norvegicus = experiment: as §1
[2] = Activation of soluble guanylyl cyclase in Wistar rat aortic strips assessed as dilation of L-phenylephrine-induced contraction administered 5 mins before contraction in presence of ODQ by isometric transducer analysis
HaCaT = experiment: Cytotoxicity against human HaCaT cells assessed as increase in dead cells 0.1 to 100 uM after 72 hrs by Trypan Blue-based assay; type: cell-based
[3] = target: Histone deacetylase (Homo sapiens) (UniProt Q13547+O15379+Q9UBN7+Q92769+Q9UQL6+Q8WUI4+Q9BY41+Q96DB2+P56524+Q9UKV0+Q969S8); experiment: Inhibition of HDAC in human HaCaT cells at 10 uM using acetylated lysine side chain as substrate incubated for 1 hr by colorimetric detection based assay relative to control; type: cell-based
Histone deacetylase 3 = Histone deacetylase 3 (Homo sapiens, UniProt O15379); experiment: Inhibition of human FLAG-tagged HDAC3 expressed in HEK293T cells using acetylated lysine side chain as substrate after 1 hr by colorimetric detection based assay; type: cell-based
Sequence of Histone deacetylase 3 (O15379 whole entry): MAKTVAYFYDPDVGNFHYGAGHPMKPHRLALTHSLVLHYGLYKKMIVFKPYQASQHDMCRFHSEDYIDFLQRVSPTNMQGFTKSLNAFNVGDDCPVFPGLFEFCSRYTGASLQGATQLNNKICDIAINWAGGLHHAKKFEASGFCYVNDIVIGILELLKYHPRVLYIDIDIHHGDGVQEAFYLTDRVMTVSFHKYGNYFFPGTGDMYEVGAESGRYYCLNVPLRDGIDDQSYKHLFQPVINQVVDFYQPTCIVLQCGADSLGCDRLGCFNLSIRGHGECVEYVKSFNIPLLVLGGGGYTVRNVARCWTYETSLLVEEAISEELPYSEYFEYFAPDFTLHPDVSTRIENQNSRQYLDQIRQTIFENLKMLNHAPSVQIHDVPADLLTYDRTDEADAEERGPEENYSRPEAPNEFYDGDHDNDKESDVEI

[4] = target: Histone deacetylase 5 (Homo sapiens) (UniProt Q9UQL6); experiment: Induction of HDAC5 nuclear translocation in human HaCaT cells at 10 uM after 1 hr by immunofluorescence analysis; type: cell-based
Sequence of Histone deacetylase 5 (Homo sapiens) (Q9UQL6 whole entry): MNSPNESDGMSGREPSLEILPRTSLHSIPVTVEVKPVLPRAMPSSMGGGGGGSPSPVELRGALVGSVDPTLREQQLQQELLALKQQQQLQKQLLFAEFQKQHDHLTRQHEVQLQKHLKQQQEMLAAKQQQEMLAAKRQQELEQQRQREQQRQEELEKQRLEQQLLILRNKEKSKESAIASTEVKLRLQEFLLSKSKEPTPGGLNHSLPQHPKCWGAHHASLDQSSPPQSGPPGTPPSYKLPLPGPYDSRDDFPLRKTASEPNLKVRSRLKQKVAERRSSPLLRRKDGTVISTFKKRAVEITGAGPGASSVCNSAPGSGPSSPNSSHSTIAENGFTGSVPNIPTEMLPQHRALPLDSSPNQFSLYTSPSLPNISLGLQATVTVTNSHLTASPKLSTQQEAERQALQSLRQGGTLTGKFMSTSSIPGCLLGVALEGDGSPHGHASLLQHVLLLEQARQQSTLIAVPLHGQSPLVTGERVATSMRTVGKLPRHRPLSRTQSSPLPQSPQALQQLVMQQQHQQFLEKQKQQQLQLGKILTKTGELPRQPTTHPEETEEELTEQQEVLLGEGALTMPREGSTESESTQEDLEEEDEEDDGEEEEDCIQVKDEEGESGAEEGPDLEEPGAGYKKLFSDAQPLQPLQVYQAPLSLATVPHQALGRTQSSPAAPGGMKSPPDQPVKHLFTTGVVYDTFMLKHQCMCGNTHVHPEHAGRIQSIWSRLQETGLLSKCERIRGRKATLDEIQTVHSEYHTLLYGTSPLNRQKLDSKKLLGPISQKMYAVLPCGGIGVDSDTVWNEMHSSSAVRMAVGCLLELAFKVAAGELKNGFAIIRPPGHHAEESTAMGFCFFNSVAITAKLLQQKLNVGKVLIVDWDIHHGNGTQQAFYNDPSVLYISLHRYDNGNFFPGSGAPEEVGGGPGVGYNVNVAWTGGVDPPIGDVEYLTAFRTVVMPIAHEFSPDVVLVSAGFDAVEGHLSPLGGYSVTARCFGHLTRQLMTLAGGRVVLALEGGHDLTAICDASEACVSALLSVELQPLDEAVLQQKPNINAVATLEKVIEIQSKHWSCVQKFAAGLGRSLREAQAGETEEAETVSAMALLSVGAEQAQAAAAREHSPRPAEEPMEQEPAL

C2C12 [5] = experiment: Induction of skeletal muscle differentiation in mouse C2C12 cells assessed as induction of multinucleated fibers at 0.5 uM after 5 days by DAPI-staining based microscopy; type: functional, cell-based
Histone deacetylase 2 [6] = target: T1, Histone deacetylase 2 (Homo sapiens, UniProt Q92769); experiment: Induction of HDAC2 S-nitrosylation in human HaCaT cells after 1 hr by immunoprecipitation and Western blot analysis; type: cell-based
T1 sequence (Q92769 whole entry): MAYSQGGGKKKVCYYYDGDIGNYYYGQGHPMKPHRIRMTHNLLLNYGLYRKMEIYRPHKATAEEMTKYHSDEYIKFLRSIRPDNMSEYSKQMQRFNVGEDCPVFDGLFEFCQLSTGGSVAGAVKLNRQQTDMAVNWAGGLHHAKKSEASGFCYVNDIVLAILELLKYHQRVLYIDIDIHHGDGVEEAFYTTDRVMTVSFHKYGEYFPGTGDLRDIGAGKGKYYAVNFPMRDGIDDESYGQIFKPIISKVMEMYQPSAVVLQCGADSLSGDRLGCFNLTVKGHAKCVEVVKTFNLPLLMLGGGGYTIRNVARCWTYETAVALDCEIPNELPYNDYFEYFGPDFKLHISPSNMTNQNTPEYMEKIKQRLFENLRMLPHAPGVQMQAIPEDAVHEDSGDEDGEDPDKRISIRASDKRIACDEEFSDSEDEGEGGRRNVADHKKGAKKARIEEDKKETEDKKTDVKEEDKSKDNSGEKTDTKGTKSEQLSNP

Histone deacetylase 2 [7] = target: T1, Histone deacetylase 2; experiment: Inhibition of FLAG-tagged HDAC2 (unknown origin) expressed in HEK293T cells using acetylated lysine side chain as substrate after 1 hr by colorimetric detection based assay; type: cell-based
Histone deacetylase 1 = Histone deacetylase 1 (Homo sapiens, UniProt Q13547); experiment: Inhibition of human FLAG-tagged HDAC1 expressed in HEK293T cells using acetylated lysine side chain as substrate after 1 hr by colorimetric detection based assay
Sequence of Histone deacetylase 1 (Q13547 whole entry): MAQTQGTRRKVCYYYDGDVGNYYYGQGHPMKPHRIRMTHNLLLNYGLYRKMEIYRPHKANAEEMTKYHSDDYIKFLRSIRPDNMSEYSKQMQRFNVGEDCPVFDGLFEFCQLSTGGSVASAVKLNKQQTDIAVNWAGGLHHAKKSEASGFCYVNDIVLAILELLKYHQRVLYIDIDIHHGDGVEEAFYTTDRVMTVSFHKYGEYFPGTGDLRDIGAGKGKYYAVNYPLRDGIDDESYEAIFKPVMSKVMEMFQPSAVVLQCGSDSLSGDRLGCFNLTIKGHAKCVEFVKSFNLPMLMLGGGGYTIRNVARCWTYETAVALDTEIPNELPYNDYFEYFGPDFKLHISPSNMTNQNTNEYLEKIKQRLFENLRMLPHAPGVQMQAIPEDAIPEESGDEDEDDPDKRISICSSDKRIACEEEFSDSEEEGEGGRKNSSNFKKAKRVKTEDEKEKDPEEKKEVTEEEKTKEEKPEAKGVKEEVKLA

C2C12 [8] = experiment: Induction of skeletal muscle differentiation in mouse C2C12 cells assessed as myotube formation by measuring MHC expression at 0.5 uM after 5 days by DAPI-staining based microscopy; type: functional, cell-based
[9] = target: Histone deacetylase 4 (Homo sapiens) (UniProt P56524); experiment: Induction of HDAC4 nuclear translocation in human HaCaT cells at 10 uM after 1 hr by immunofluorescence analysis; type: cell-based
Sequence of Histone deacetylase 4 (Homo sapiens) (P56524 whole entry): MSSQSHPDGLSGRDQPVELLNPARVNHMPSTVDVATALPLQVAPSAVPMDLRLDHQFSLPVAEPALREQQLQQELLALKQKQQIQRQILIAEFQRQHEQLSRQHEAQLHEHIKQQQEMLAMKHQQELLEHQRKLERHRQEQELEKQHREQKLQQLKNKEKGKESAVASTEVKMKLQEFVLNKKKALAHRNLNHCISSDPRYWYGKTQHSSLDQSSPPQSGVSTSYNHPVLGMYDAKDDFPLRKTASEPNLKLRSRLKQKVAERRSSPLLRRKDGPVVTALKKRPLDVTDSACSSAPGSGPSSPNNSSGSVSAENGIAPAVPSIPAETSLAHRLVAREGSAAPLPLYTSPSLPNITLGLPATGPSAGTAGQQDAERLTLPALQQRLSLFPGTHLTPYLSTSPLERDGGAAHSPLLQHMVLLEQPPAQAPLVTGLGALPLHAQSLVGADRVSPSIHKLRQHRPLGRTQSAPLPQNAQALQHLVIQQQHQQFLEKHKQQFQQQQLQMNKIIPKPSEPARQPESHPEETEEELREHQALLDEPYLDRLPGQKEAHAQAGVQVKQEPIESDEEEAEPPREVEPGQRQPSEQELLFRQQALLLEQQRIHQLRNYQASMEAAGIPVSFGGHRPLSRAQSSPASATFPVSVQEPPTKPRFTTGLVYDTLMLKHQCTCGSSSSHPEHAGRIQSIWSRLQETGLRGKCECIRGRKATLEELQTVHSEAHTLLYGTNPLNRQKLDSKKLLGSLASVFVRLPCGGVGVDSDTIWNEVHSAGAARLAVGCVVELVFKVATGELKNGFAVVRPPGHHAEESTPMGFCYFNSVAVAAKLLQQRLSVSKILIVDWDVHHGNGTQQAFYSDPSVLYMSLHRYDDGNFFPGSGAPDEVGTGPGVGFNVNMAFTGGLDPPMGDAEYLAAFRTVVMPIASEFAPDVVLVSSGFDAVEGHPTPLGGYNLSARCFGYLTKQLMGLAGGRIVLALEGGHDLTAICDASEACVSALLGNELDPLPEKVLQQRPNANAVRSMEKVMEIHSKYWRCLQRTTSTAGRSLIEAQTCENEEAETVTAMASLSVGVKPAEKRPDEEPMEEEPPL

C2C12 [10] = experiment: Cytotoxicity against mouse C2C12 cells assessed as increase in dead cells 0.5 to 10 uM after 72 hrs by Trypan Blue-based assay; type: cell-based; details: c2c12, 72 h
C2C12 [11] = experiment: Induction of skeletal muscle differentiation in mouse C2C12 cells assessed as increase in myoblast fusion by measuring MyoM expression at 0.5 uM after 5 days by qRT-PCR analysis; type: functional, cell-based
[12] = Drug metabolism in human HaCaT cells assessed as induction of NO release at 10 uM after 1 hr by DAF-2D-based FACS analysis; type: ADME, cell-based
[13] = Drug metabolism in human HaCaT cells assessed as induction of NO release at 50 to 100 uM after 1 hr by DAF-2D-based FACS analysis; type: ADME, cell-based
[14] = Drug metabolism in human HaCaT cells assessed as induction of NO release at 10 uM by DAF-2D-based FACS analysis; type: ADME, cell-based; details: TDE = time-dependent effect

Structure (SMILES) | EC50 [1] | Activity (Rattus norvegicus) | EC50 [2] | Activity (HaCaT) | inhibition [3] | IC50 (Histone deacetylase 3) | Activity [4] | Activity (C2C12 [5]) | Activity (Histone deacetylase 2 [6]) | IC50 (Histone deacetylase 2 [7]) | IC50 (Histone deacetylase 1) | Activity (C2C12 [8]) | Activity [9] | Activity (C2C12 [10]) | Activity (C2C12 [11]) | Drug metabolism [12] | Drug metabolism [13] | Drug metabolism [14]
COCCOc1no[n+]([O-])c1S(=O)(=O)c1ccccc1 | 4.5 nM | Dose-dependent effect | 430 nM | – | – | – | – | – | – | – | – | – | – | – | – | – | – | –
CN(CCCCC(CO[N+](=O)[O-])O[N+](=O)[O-])Cc1ccc(COC(=O)NCc2ccc(C(=O)Nc3ccccc3N)cc2)cn1.Cl.Cl.Cl (centres undefined) | 290 nM | Dose-dependent effect | 11000 nM | Non-Toxic | 20 to 50% | 1220 nM | Active | Active | Active | 390 nM | 1040 nM | Active | Active | Non-Toxic | Active | Metabolite_Detected | – | –
CN(Cc1ccc(COC(=O)NCc2ccc(C(=O)Nc3ccccc3N)cc2)cn1)Cc1no[n+]([O-])c1C(N)=O.Cl.Cl.Cl | 3400 nM | Dose-dependent effect | 63000 nM | – | 20 to 50% | – | – | – | – | – | – | – | – | – | – | Metabolite_Notdetected | Metabolite_Notdetected | –
CN(Cc1ccc(COC(=O)NCc2ccc(C(=O)Nc3ccccc3N)cc2)cn1)Cc1no[n+]([O-])c1C#N | 24 nM | Dose-dependent effect | 960 nM | – | 20 to 50% | – | – | – | Active | – | – | – | – | – | – | – | – | –
Nc1ccccc1NC(=O)c1ccc(CNC(=O)OCc2ccc(OCCOc3no[n+]([O-])c3-c3ccccc3)nc2)cc1 | 3400 nM | Dose-dependent effect | > 100000 nM | – | 20 to 50% | – | – | – | – | – | – | – | – | – | – | Metabolite_Detected | – | –
Nc1ccccc1NC(=O)c1ccc(CNC(=O)OCc2cccnc2)cc1 [ENTINOSTAT] | – | – | – | Toxic | – | – | – | – | – | – | – | – | – | Toxic | – | – | – | –
Nc1ccccc1NC(=O)c1ccc(CNC(=O)OCc2ccc(OCCOc3no[n+]([O-])c3S(=O)(=O)c3ccccc3)nc2)cc1 | 31 nM | Dose-dependent effect | 350 nM | Non-Toxic | 20 to 50% | 1190 nM | Active | – | Active | 370 nM | 1020 nM | Active | Active | Non-Toxic | – | – | – | Tde
CN(CCCO[N+](=O)[O-])Cc1ccc(COC(=O)NCc2ccc(C(=O)Nc3ccccc3N)cc2)cn1.Cl.Cl.Cl | 2600 nM | Dose-dependent effect | 44000 nM | – | 20 to 50% | – | – | – | – | – | – | – | – | – | – | Metabolite_Notdetected | – | –
CN(C)CCCCC(CO[N+](=O)[O-])O[N+](=O)[O-] (centres undefined) | 800 nM | Dose-dependent effect | > 100000 nM | – | – | – | – | – | – | – | – | – | – | – | – | – | – | –
